Results published in US20090263410A1, “USE OF TGF-B1 INHIBITOR PEPTIDES IN THE PREPARATION OF AN IMMUNE RESPONSE MODULATING AGENT” (Proyecto De Biomedicina Cima, S.L., priority 2005, published 2009).
“Also recorded” adds a separate entry of the source.

Assays:
CT26 cells = assay: Tumour growth of subcutaneous CT26 in AH1-immunized mice treated with peptides; type: in vivo, balb-c mice
Protocol: GROUPS: 4 groups of 7 female balb-c mice, of 6 weeks old/group.
AH1+FIA s.c.+p144 (50 μg i.p./dose/mouse) AH1+FIA s.c.+p17(1-11) (50 μg i.p./dose/mouse) DESIGN: AH1+FIA: […]; Peptides: from day −6 on alternate days until day 10: Tumour model volume: Each 3 days from day 10 to day 41. Challenge on day 0 with CT26 (500000 cells/mouse s.c. in the flank).
REDUCTION IN THE MEAN TUMOUR VOLUME BY GROUPS TREATED WITH PEPTIDES: The effect of peptides p144 and p17(1-11)Am was studied in a tumour progression model. In this model, mice were immunized with 50 μg of AH1 10 days before the administration of 5×10^5 CT26 cells. In order to verify the effect of blocking the TGF-β1 on the protection against CT tumour cells, another two groups of mice were treated on alternate days by intraperitoneal route between days 6 and 10 (50 μg/mouse/48 h) with peptides p144 and p17(1-11)Am. […] This protection reached 100% of the animals in the case of p144 (FIG. 16).

[1] = test system: dendritic cells derived from splenocytes; assay: Surface markers of splenocyte-derived dendritic cells by flow cytometry; type: cell-based, C57 mouse; conditions: incubation 72 hours; p144 50 μg/ml or anti (TGF-β) antibody 20 μg/ml; medium with GM-CSF+TGF-β1
Protocol: After sacrificing an 8-week old male C57 mouse, its spleen was extracted in sterile conditions and it was homogenised on a plate with clean medium to produce a cell suspension. The cells were centrifuged for 5 minutes at 1000 rpm and the cell sediment obtained was resuspended with 1 ml/spleen of ACK lysis solution (0.15M NH4Cl, 1 mM KHCO3, […] sodium salt-EDTA solution, pH 7.2-7.4) for 1 minute at 37° C. Next, the cells were centrifuged and washed with 10 ml of cold R10 medium (RPMI-1640, 10% FBS, Glutamine, 2×10^−5 M 2-Mercaptoethanol) to centrifuge and wash once more. Finally, the cells were resuspended in 50 ml of R10 medium. 6-well plates were prepared (Costar #3471) treating them with 1 ml per well of R10 medium to differentiate splenocytes from dendritic cells [R10+10 ng/ml of mouse GM-CSF (Peprotec, EC LTD, London, UK)+1 ng/ml of TGF-β1 (RD Systems, Minneapolis, USA)], for 15 minutes at room temperature. Next, 2 ml of the cell suspension were added to each well and they were incubated at 37° C. and 5% CO2. During the first weeks, the medium was changed twice, by the elimination of 1 ml of supernatant and the addition of 1 ml of fresh medium (R10+GM-CSF+TGF-β1) for dendritic cells. After these two weeks, the medium was separated. 1 ml per well of dissociation medium in enzyme-free BPS (GIBCO BRL) was added to the plates, and the medium was incubated at 37° C., then it was removed and 2 ml of tepid medium (R10+GM-CSF+TGF-β1) was added. Next, the cells were lifted with slow pipetting and the lifted cells were centrifuged at 1000 rpm and they were resuspended in fresh medium (R10+GM-CSF+TGF-β1). The cells thus obtained can be reamplified by seeding on a plate, repeating the initial process. […]

For “p144: peptide inhibiting TGF-β1 whose amino acid sequence corresponds to SEQ ID NO: 1 (TSLDASIIWAMMQN; Synthetic Construct from human TGB-Beta1 type III receptor.Domain730-743)”, the tumour growth (CT26 cells; 50 μg/mouse/48 h i.p. between days 6 and 10, s.c. CT26 on day 0, AH1 immunization 10 days before) was “protection against tumour growth; also recorded: delay tumour growth”, the “protection against tumour growth, share of animals” value (CT26 cells; measured on day 42 after subcutaneous administration of tumour cells) was 100% and the “CD11c expression (fluorescence level)” value [1] was “negative effect”. For the same substance, the “CD80 expression (fluorescence level)” value [1] was “negative effect” and the “MHC I expression (fluorescence level)” value [1] was “negative effect”.
